Laboratory results taken from ChEMBL document CHEMBL2202954, “The effect of PLC-γ2 inhibitors on the growth of human tumour cells” (2012).

Tests used:
Assay type in all cases: functional
T47D = assay: Cytotoxicity against human T47D cells assessed as cellular growth at 10 uM by SRB assay
SN12C = assay: Cytotoxicity against human SN12C cells assessed as cellular growth at 10 uM by SRB assay
OVCAR-5 = assay: Cytotoxicity against human OVCAR5 cells assessed as cellular growth at 10 uM by SRB assay
EKVX = assay: Cytotoxicity against human EKVX cells assessed as cellular growth at 10 uM by SRB assay
HCT-15 = assay: Cytotoxicity against human HCT15 cells assessed as cellular growth at 10 uM by SRB assay
UACC-257 = assay: Cytotoxicity against human UACC257 cells assessed as cellular growth at 10 uM by SRB assay
SK-OV-3 = assay: Cytotoxicity against human SKOV3 cells assessed as cellular growth at 10 uM by SRB assay
OVCAR-8 = assay: Cytotoxicity against human OVCAR8 cells assessed as cellular growth at 10 uM by SRB assay
DU-145 = assay: Cytotoxicity against human DU145 cells assessed as cellular growth at 10 uM by SRB assay
IGROV-1 = assay: Cytotoxicity against human IGROV1 cells assessed as cellular growth at 10 uM by SRB assay
CCRF-CEM = assay: Cytotoxicity against human CCRF-CEM cells assessed as cellular growth at 10 uM by SRB assay
KM12 = assay: Cytotoxicity against human KM12 cells assessed as cellular growth at 10 uM by SRB assay
U-251 = assay: Cytotoxicity against human U251 cells assessed as cellular growth at 10 uM by SRB assay
Hs-578T = assay: Cytotoxicity against human Hs578T cells assessed as cellular growth at 10 uM by SRB assay
NCI-H23 = assay: Cytotoxicity against human NCI-H23 cells assessed as cellular growth at 10 uM by SRB assay
Malme-3M = assay: Cytotoxicity against human MALME-3M cells assessed as cellular growth at 10 uM by SRB assay
HL-60(TB) = assay: Cytotoxicity against human HL-60(TB) cells assessed as cellular growth at 10 uM by SRB assay
BT-549 = assay: Cytotoxicity against human BT549 cells assessed as cellular growth at 10 uM by SRB assay
RPMI-8226 = assay: Cytotoxicity against human RPMI8226 cells assessed as cellular growth at 10 uM by SRB assay
HT-29 = assay: Cytotoxicity against human HT-29 cells assessed as cellular growth at 10 uM by SRB assay
MOLT-4 = assay: Cytotoxicity against human MOLT4 cells assessed as cellular growth at 10 uM by SRB assay
CAKI-1 = assay: Cytotoxicity against human Caki1 cells assessed as cellular growth at 10 uM by SRB assay
SK-MEL-2 = assay: Cytotoxicity against human SK-MEL-2 cells assessed as cellular growth at 10 uM by SRB assay
A498 = assay: Cytotoxicity against human A498 cells assessed as cellular growth at 10 uM by SRB assay
MDA-MB-231 = assay: Cytotoxicity against human MDA-MB-231 cells assessed as cellular growth at 10 uM by SRB assay
NCI-H226 = assay: Cytotoxicity against human NCI-H226 cells assessed as cellular growth at 10 uM by SRB assay
MDA-MB-435 = assay: Cytotoxicity against human MDA-MB-435 cells assessed as cellular growth at 10 uM by SRB assay
SK-MEL-28 = assay: Cytotoxicity against human SK-MEL-28 cells assessed as cellular growth at 10 uM by SRB assay
NCI-H522 = assay: Cytotoxicity against human NCI-H522 cells assessed as cellular growth at 10 uM by SRB assay
SK-MEL-5 = assay: Cytotoxicity against human SK-MEL-5 cells assessed as cellular growth at 10 uM by SRB assay
SW-620 = assay: Cytotoxicity against human SW620 cells assessed as cellular growth at 10 uM by SRB assay
COLO 205 = assay: Cytotoxicity against human COLO205 cells assessed as cellular growth at 10 uM by SRB assay
[1] = Cytotoxicity against human NCI-ADR-RES cells assessed as cellular growth at 10 uM by SRB assay
UO-31 = assay: Cytotoxicity against human UO31 cells assessed as cellular growth at 10 uM by SRB assay
K562 = assay: Cytotoxicity against human K562 cells assessed as cellular growth at 10 uM by SRB assay
SF-268 = assay: Cytotoxicity against human SF268 cells assessed as cellular growth at 10 uM by SRB assay
MDA-MB-468 = assay: Cytotoxicity against human MDA-MB-468 cells assessed as cellular growth at 10 uM by SRB assay
LOX IMVI = assay: Cytotoxicity against human LOXIMVI cells assessed as cellular growth at 10 uM by SRB assay
SNB-19 = assay: Cytotoxicity against human SNB19 cells assessed as cellular growth at 10 uM by SRB assay
SNB-75 = assay: Cytotoxicity against human SNB75 cells assessed as cellular growth at 10 uM by SRB assay
SR = assay: Cytotoxicity against human SR cells assessed as cellular growth at 10 uM by SRB assay
OVCAR-3 = assay: Cytotoxicity against human OVCAR3 cells assessed as cellular growth at 10 uM by SRB assay
HOP-62 = assay: Cytotoxicity against human HOP62 cells assessed as cellular growth at 10 uM by SRB assay
UACC-62 = assay: Cytotoxicity against human UACC62 cells assessed as cellular growth at 10 uM by SRB assay
M14 = assay: Cytotoxicity against human M14 cells assessed as cellular growth at 10 uM by SRB assay
786-0 = assay: Cytotoxicity against human 786-0 cells assessed as cellular growth at 10 uM by SRB assay
A549 = assay: Cytotoxicity against human A549 cells assessed as cellular growth at 10 uM by SRB assay
HCC 2998 = assay: Cytotoxicity against human HCC2998 cells assessed as cellular growth at 10 uM by SRB assay
PC-3 = assay: Cytotoxicity against human PC3 cells assessed as cellular growth at 10 uM by SRB assay
SF-539 = assay: Cytotoxicity against human SF539 cells assessed as cellular growth at 10 uM by SRB assay
TK-10 = assay: Cytotoxicity against human TK10 cells assessed as cellular growth at 10 uM by SRB assay
ACHN = assay: Cytotoxicity against human ACHN cells assessed as cellular growth at 10 uM by SRB assay
NCI-H460 = assay: Cytotoxicity against human NCI-H460 cells assessed as cellular growth at 10 uM by SRB assay
NCI-H322M = assay: Cytotoxicity against human NCI-H322M cells assessed as cellular growth at 10 uM by SRB assay
OVCAR-4 = assay: Cytotoxicity against human OVCAR4 cells assessed as cellular growth at 10 uM by SRB assay
RXF 393 = assay: Cytotoxicity against human RXF393 cells assessed as cellular growth at 10 uM by SRB assay
MCF7 = assay: Cytotoxicity against human MCF7 cells assessed as cellular growth at 10 uM by SRB assay
HCT-116 = assay: Cytotoxicity against human HCT116 cells assessed as cellular growth at 10 uM by SRB assay
SF-295 = assay: Cytotoxicity against human SF295 cells assessed as cellular growth at 10 uM by SRB assay

O=C(Nc1nc2ccc(Cl)cc2s1)c1ccc(Cl)cc1
Activity (T47D): 93.28% | Activity (SN12C): 122.51% | Activity (OVCAR-5): 115.32% | Activity (EKVX): 94% | Activity (HCT-15): 98.99% | Activity (UACC-257): 94.31% | Activity (SK-OV-3): 89.31% | Activity (OVCAR-8): 98.61% | Activity (DU-145): 114.57% | Activity (IGROV-1): 119.2% | Activity (CCRF-CEM): 96.23% | Activity (KM12): 102.62% | Activity (U-251): 94.55% | Activity (Hs-578T): 98.57% | Activity (NCI-H23): 91.71% | Activity (Malme-3M): 110.45% | Activity (HL-60(TB)): 100.76% | Activity (BT-549): 106.78% | Activity (RPMI-8226): 95.05% | Activity (HT-29): 107.3% | Activity (MOLT-4): 95.76% | Activity (CAKI-1): 81.52% | Activity (SK-MEL-2): 111.04% | Activity (A498): 94.69% | Activity (MDA-MB-231): 98.56% | Activity (NCI-H226): 84.73% | Activity (MDA-MB-435): 90.92% | Activity (SK-MEL-28): 109.14% | Activity (NCI-H522): 99.64% | Activity (SK-MEL-5): 94.67% | Activity (SW-620): 103.76% | Activity (COLO 205): 105.29% | Activity [1]: 100.28% | Activity (UO-31): 97.6% | Activity (K562): 96.27% | Activity (SF-268): 112.46% | Activity (MDA-MB-468): 114.39% | Activity (LOX IMVI): 98.77% | Activity (SNB-19): 125.32% | Activity (SNB-75): 100.74% | Activity (SR): 94.31% | Activity (OVCAR-3): 112.95% | Activity (HOP-62): 103.16% | Activity (UACC-62): 101.97% | Activity (M14): 106.22% | Activity (786-0): 101.53% | Activity (A549): 94.26% | Activity (HCC 2998): 106.96% | Activity (PC-3): 89.01% | Activity (SF-539): 88.34% | Activity (TK-10): 131.87% | Activity (ACHN): 96.94% | Activity (NCI-H460): 98.55% | Activity (NCI-H322M): 111.02% | Activity (OVCAR-4): 100.6% | Activity (RXF 393): 111.55% | Activity (MCF7): 99.61% | Activity (HCT-116): 98.42% | Activity (SF-295): 87.02%

O=S(=O)(Oc1ccc(-c2cnc3ccccc3n2)cc1)c1ccccc1
Activity (T47D): 86.45% | Activity (SN12C): 95.17% | Activity (OVCAR-5): 101.99% | Activity (EKVX): 93.17% | Activity (HCT-15): 98.25% | Activity (UACC-257): 100.15% | Activity (SK-OV-3): 106.76% | Activity (OVCAR-8): 100.22% | Activity (DU-145): 107.72% | Activity (IGROV-1): 130.45% | Activity (CCRF-CEM): 85.64% | Activity (KM12): 111.44% | Activity (U-251): 92.1% | Activity (Hs-578T): 145.79% | Activity (NCI-H23): 96.29% | Activity (Malme-3M): 92.27% | Activity (HL-60(TB)): 94.23% | Activity (BT-549): 96.82% | Activity (RPMI-8226): 87.36% | Activity (HT-29): 78.71% | Activity (MOLT-4): 75.6% | Activity (CAKI-1): 100.14% | Activity (SK-MEL-2): 109.62% | Activity (A498): 60.82% | Activity (MDA-MB-231): 105.17% | Activity (NCI-H226): 94.97% | Activity (MDA-MB-435): 96.88% | Activity (SK-MEL-28): 110.13% | Activity (NCI-H522): 78.75% | Activity (SK-MEL-5): 92.11% | Activity (SW-620): 99.76% | Activity [1]: 96.02% | Activity (UO-31): 94.43% | Activity (K562): 81.89% | Activity (SF-268): 98.77% | Activity (MDA-MB-468): 84.46% | Activity (LOX IMVI): 95.98% | Activity (SNB-19): 102.07% | Activity (SNB-75): 108.13% | Activity (SR): 85.09% | Activity (OVCAR-3): 112.06% | Activity (HOP-62): 106.15% | Activity (UACC-62): 78.48% | Activity (M14): 106.54% | Activity (786-0): 92.9% | Activity (A549): 95.36% | Activity (HCC 2998): 99.83% | Activity (PC-3): 89.87% | Activity (SF-539): 94.38% | Activity (TK-10): 82.7% | Activity (ACHN): 103.61% | Activity (NCI-H460): 110.82% | Activity (NCI-H322M): 107.81% | Activity (OVCAR-4): 96.73% | Activity (RXF 393): 102.24% | Activity (MCF7): 94.53% | Activity (HCT-116): 94.15% | Activity (SF-295): 94.02%
